# Experimental data as given in patent publication US9650395B2, “Antibacterial compounds and methods for use” (PTC Therapeutics, Inc., priority 2011, dated 2017).
# Columns and labels:
# [1] = system: super sensitive Gram-negative Escherichia coli (E. coli) BAS849; test: Antibacterial activity, microbroth dilution MIC, E. coli BAS849; assay type: cell-based; conditions: Escherichia coli; E. coli BAS849, microbroth dilution; read-out: MIC, BAS849
# [2] = system: control Gram-negative E. coli 25922 strain; test: Antibacterial activity, microbroth dilution MIC, E. coli 25922; assay type: cell-based, Escherichia coli; conditions: Escherichia coli; E. coli 25922, microbroth dilution; read-out: MIC, 25922
# [3] = system: Gram-positive Staphylococcus aureus (S. aureus) 29213; test: Antibacterial activity, microbroth dilution MIC, S. aureus 29213; assay type: cell-based; conditions: Staphylococcus aureus; S. aureus 29213, microbroth dilution; read-out: MIC, 29213
# [4] = system: quinolone resistant E. coli LZ3111; test: Antibacterial activity, MIC, quinolone resistant E. coli LZ3111; assay type: cell-based, Escherichia coli; conditions: Escherichia coli, read-out: MIC, LZ3111
# Text: (§1) The antibacterial activity from a microbroth dilution method may be presented as the minimum inhibitory concentration (MIC in […]). The MIC value is the lowest concentration of a drug which prevents macroscopically visible bacterial growth under test conditions.
# Mutations in these regions are known to confer a high level resistance to the quinolone class of antibiotics.
# [5] = system: Acinetobacter baumannii (A. baumannii) BAA747; test: Antibacterial activity, MIC, A. baumannii BAA747; assay type: cell-based; conditions: Acinetobacter baumannii; A. baumannii BAA747; read-out: MIC BAA747
# [6] = system: Klebsiella pneumoniae (K. pneumoniae) 35657; test: Antibacterial activity, MIC, K. pneumoniae 35657; assay type: cell-based; conditions: Klebsiella pneumoniae
# [7] = system: resistant A. baumannii MXX2240 (MDR clinical isolate); test: Antibacterial activity, MIC, resistant A. baumannii MXX2240; assay type: cell-based, Acinetobacter baumannii; conditions: Acinetobacter baumannii, resistant A. baumannii MMX2240, MDR clinical isolate; read-out: MIC MMX2240
# [8] = system: resistant K. pneumoniae MXX1232 (MDR clinical isolate); test: Antibacterial activity, MIC, resistant K. pneumoniae MXX1232; assay type: cell-based, Klebsiella pneumoniae; conditions: Klebsiella pneumoniae; resistant K. pneumoniae MMX1232, MDR clinical isolate; read-out: MIC MMX1232
# [9] = system: Pseudomonas aeruginosa (P. aeruginosa) 27853; test: Antibacterial activity, MIC, P. aeruginosa 27853; assay type: cell-based; conditions: Pseudomonas aeruginosa, P. aeruginosa 27853; read-out: MIC 27853
# Text: as §1
# Antibacterial activity of test compounds against the Gram-negative bacterium Pseudomonas aeruginosa (P. aeruginosa) 27853 is shown in Table 5.
Compound,MIC [1],MIC [2],MIC [3],MIC [4],MIC [5],MIC [6],MIC [7],MIC [8],MIC [9]
"CCc1c(-c2cnc(N3CCC(N(C)C)C3)cn2)[nH]c(=O)c(C(=O)O)c1O (stereo not drawn) [Cpd 314, 6-(5-(3-(dimethylamino)pyrrolidin-1-yl)pyrazin-2-yl)-5-ethyl-4-hydroxy-2-oxo-1,2-dihydropyridine-3-carboxylic acid]",3.5 to 12.5 µg/mL,12.5 to 150 µg/mL,12.5 to 150 µg/mL,3.5 to 12.5 µg/mL,12.5 to 150 µg/mL,12.5 to 150 µg/mL,12.5 to 150 µg/mL,12.5 to 150 µg/mL,12.5 to 150 µg/mL
"Cc1c(-c2ccc(N3CCCC3)cn2)[nH]c(=O)c(C(=O)O)c1O [Cpd 315, 4-hydroxy-5-methyl-2-oxo-6-(5-(pyrrolidin-1-yl)pyridin-2-yl)-1,2-dihydropyridine-3-carboxylic acid]",1 to 3.5 µg/mL,12.5 to 150 µg/mL,12.5 to 150 µg/mL,12.5 to 150 µg/mL,12.5 to 150 µg/mL,12.5 to 150 µg/mL,12.5 to 150 µg/mL,12.5 to 150 µg/mL,12.5 to 150 µg/mL
"Cc1c(-c2ccc(N3CCC(N(C)C)C3)cn2)[nH]c(=O)c(C(=O)O)c1O (stereo not drawn) [Cpd 316, 6-(5-(3-(dimethylamino)pyrrolidin-1-yl)pyridin-2-yl)-4-hydroxy-5-methyl-2-oxo-1,2-dihydropyridine-3-carboxylic acid]",12.5 to 150 µg/mL,12.5 to 150 µg/mL,12.5 to 150 µg/mL,12.5 to 150 µg/mL,12.5 to 150 µg/mL,12.5 to 150 µg/mL,12.5 to 150 µg/mL,12.5 to 150 µg/mL,12.5 to 150 µg/mL
"Cc1c(-c2ccc(N3C[C@@H]4[C@@H](N)[C@@H]4C3)cn2)[nH]c(=O)c(C(=O)O)c1O [Cpd 317, 6-(5-((1R,5S,6s)-6-amino-3-azabicyclo[3.1.0]hexan-3-yl)pyridin-2-yl)-4-hydroxy-5-methyl-2-oxo-1,2-dihydropyridine-3-carboxylic acid]",3.5 to 12.5 µg/mL,3.5 to 12.5 µg/mL,12.5 to 150 µg/mL,12.5 to 150 µg/mL,12.5 to 150 µg/mL,3.5 to 12.5 µg/mL,12.5 to 150 µg/mL,12.5 to 150 µg/mL,12.5 to 150 µg/mL
"Cc1cc(N2C[C@@H]3[C@@H](N)[C@@H]3C2)ccc1-c1[nH]c(=O)c(C(=O)O)c(O)c1C [Cpd 318, 6-(4-((1R,5S,6s)-6-amino-3-azabicyclo[3.1.0]hexan-3-yl)-2-methylphenyl)-4-hydroxy-5-methyl-2-oxo-1,2-dihydropyridine-3-carboxylic acid]",3.5 to 12.5 µg/mL,12.5 to 150 µg/mL,12.5 to 150 µg/mL,12.5 to 150 µg/mL,12.5 to 150 µg/mL,12.5 to 150 µg/mL,12.5 to 150 µg/mL,12.5 to 150 µg/mL,12.5 to 150 µg/mL
"CCc1c(-c2ccc(N3CC4(CCN(C)CC4)C3)cc2)[nH]c(=O)c(C(=O)O)c1O [Cpd 319, 5-ethyl-4-hydroxy-6-(4-(7-methyl-2,7-diazaspiro[3.5]nonan-2-yl)phenyl)-2-oxo-1,2-dihydropyridine-3-carboxylic acid]",< 1 µg/mL,3.5 to 12.5 µg/mL,12.5 to 150 µg/mL,12.5 to 150 µg/mL,12.5 to 150 µg/mL,3.5 to 12.5 µg/mL,12.5 to 150 µg/mL,12.5 to 150 µg/mL,12.5 to 150 µg/mL
"CCc1c(-c2ccc(N3CC4(CCNCC4)C3)cc2)[nH]c(=O)c(C(=O)O)c1O [Cpd 320, 6-(4-(2,7-diazaspiro[3.5]nonan-2-yl)phenyl)-5-ethyl-4-hydroxy-2-oxo-1,2-dihydropyridine-3-carboxylic acid]",3.5 to 12.5 µg/mL,12.5 to 150 µg/mL,12.5 to 150 µg/mL,12.5 to 150 µg/mL,12.5 to 150 µg/mL,3.5 to 12.5 µg/mL,12.5 to 150 µg/mL,12.5 to 150 µg/mL,12.5 to 150 µg/mL
"CCc1c(-c2ccc(N3CCC4(CCNC4)C3)cc2)[nH]c(=O)c(C(=O)O)c1O (stereo not drawn) [Cpd 321, 6-(4-(2,7-diazaspiro[4.4]nonan-2-yl)phenyl)-5-ethyl-4-hydroxy-2-oxo-1,2-dihydropyridine-3-carboxylic acid]",1 to 3.5 µg/mL,12.5 to 150 µg/mL,12.5 to 150 µg/mL,12.5 to 150 µg/mL,12.5 to 150 µg/mL,3.5 to 12.5 µg/mL,12.5 to 150 µg/mL,12.5 to 150 µg/mL,12.5 to 150 µg/mL
"CCc1c(-c2ccc(N3CCC4(CCN(C)C4)C3)cc2)[nH]c(=O)c(C(=O)O)c1O (stereo not drawn) [Cpd 322, 5-ethyl-4-hydroxy-6-(4-(7-methyl-2,7-diazaspiro[4.4]nonan-2-yl)phenyl)-2-oxo-1,2-dihydropyridine-3-carboxylic acid]",< 1 µg/mL,< 1 µg/mL,3.5 to 12.5 µg/mL,12.5 to 150 µg/mL,1 to 3.5 µg/mL,1 to 3.5 µg/mL,12.5 to 150 µg/mL,12.5 to 150 µg/mL,3.5 to 12.5 µg/mL
